The EC50 is the concentration giving half of the maximal effect. Lower therefore signals greater potency.

This experiment addresses T1, Btα1/Btα8/Btβ1 nAChR (Bombus terrestris, UniProt A0A9B0BGM1+A0A9B0F4H3+A0A9B2JDZ7).
T1 sequence (A0A9B0F4H3 44-615): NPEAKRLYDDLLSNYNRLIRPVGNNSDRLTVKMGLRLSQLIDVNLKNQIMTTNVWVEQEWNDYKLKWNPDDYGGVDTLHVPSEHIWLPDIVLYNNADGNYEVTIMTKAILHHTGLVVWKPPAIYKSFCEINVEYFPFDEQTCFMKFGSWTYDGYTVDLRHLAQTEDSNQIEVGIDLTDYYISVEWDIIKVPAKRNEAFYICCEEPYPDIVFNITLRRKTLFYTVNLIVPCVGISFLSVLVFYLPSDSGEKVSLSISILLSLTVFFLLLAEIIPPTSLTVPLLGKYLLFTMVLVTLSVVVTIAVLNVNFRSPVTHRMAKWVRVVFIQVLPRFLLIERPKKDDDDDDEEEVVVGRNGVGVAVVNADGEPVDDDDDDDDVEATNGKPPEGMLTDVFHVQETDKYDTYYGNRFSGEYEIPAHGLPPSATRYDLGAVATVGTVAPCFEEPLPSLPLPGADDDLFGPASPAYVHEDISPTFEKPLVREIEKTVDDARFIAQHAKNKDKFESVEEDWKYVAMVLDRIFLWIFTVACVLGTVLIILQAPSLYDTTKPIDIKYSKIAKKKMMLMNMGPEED
T1 sequence (A0A9B2JDZ7 22-535): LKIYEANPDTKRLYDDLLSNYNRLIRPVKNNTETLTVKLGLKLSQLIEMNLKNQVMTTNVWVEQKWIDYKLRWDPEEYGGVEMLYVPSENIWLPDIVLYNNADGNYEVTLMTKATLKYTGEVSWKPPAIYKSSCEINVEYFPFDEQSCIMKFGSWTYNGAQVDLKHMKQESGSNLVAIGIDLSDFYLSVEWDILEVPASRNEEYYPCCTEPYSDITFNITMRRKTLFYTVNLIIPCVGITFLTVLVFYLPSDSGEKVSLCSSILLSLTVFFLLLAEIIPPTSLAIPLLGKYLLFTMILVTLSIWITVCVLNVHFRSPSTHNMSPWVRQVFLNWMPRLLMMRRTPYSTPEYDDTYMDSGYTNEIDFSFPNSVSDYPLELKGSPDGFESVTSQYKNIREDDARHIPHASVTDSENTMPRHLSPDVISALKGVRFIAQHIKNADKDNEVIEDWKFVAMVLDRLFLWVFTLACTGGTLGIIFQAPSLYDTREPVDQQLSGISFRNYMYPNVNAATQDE
T1 sequence (A0A9B0BGM1 19-519): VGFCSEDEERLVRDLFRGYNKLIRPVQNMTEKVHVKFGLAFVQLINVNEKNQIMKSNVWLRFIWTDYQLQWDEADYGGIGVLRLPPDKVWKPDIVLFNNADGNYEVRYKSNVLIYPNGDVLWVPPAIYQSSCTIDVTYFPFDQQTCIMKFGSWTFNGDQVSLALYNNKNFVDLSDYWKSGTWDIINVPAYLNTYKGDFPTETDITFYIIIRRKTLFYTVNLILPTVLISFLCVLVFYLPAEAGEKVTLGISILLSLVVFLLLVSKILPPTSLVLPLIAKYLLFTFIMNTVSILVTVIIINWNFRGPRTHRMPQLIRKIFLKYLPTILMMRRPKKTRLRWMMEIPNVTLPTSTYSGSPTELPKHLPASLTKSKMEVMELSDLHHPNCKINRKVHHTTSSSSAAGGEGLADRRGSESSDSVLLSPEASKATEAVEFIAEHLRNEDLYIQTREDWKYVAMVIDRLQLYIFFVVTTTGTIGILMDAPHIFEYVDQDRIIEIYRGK
Kind of experiment: two-electrode voltage clamp of Xenopus oocytes, agonist concentration-response. It is filed as cell-based. (Two-electrode voltage clamp holds a large cell at a set potential and records current.)
As for `CN/C(=N\[N+](=O)[O-])NCc1cnc(Cl)s1` [clothianidin], the EC50 is 0.0135 µM.

The compound `O=[N+]([O-])NC1=NCCN1Cc1ccc(Cl)nc1` [imidacloprid] gave a concentration for a half-maximal effect (EC50) of 0.0251 µM.

As for `N#C/N=C1\SCCN1Cc1ccc(Cl)nc1` [thiacloprid], the concentration giving a half-maximal response (EC50) is 0.0513 µM. This EC50 lies about 2-fold higher than the previous one.

For the origin of these results see paper PMC7368294 (Proceedings of the National Academy of Sciences of the …, 2020).
